Measurements reported in ChEMBL document CHEMBL3988442, “University of Dundee, Small-Polar-MMV Screening Library” (2021).
Several values for one entry are separate records, joined by “and”; a condition that tells them apart may be missing. Equal values may be shown once.

Tests used:
[1] = To identify inhibition of the IFN signalling (Jak-Stat) pathway via expression of an eGFP reporter gene under the control of an IFN-stimulated response element (ISRE) containing MxA promoter.; format: functional, Homo sapiens
[2] = system: Schistosoma mansoni; assay: High throughput screening of compounds against Schistosoma mansoni motility; format: functional; parameters: dose or concentration left out as unconfirmed
[3] = In vitro enzyme assay to detect hydrolysis of chlorophenol red-beta-D-[…] directly proportional to the number of Toxoplasma stably expressing beta-galactosidase; format: functional, organism-based, Toxoplasma gondii; conditions: Toxoplasma gondii
[4] = system: Leishmania donovani; assay: Leishmania intramacrophage assay; format: functional, organism-based; conditions: for IC50: Leishmania donovani
[5] = biological target: Chromo domain-containing protein 1 (Saccharomyces cerevisiae (strain ATCC 204508 / S288c) (Baker's yeast), UniProt P32657); assay: ScCHD-1 Enzyme Inhibition Assay; format: functional
[6] = system: Trypanosoma brucei; assay: Trypanosoma brucei 72 hour study; format: functional, organism-based
[7] = biological target: AMP-activated protein kinase, AMPK; assay: AMP-dependent Kinase enzyme assay. An in vitro enzyme assay that detects ADP turnover that is directly proportional to AMPK activity. This uses naive AMPK that is activated during the assay with MK-8722; format: functional, Homo sapiens
[8] = biological target: Lysine--tRNA ligase (Plasmodium falciparum (isolate 3D7), UniProt Q8IDJ8); assay: Pf-KRS-1 (Lysyl-RNA Synthetase-1, KRS-1, cytosolic KRS) from Plasmodium falciparum. Inhibitor assay, 384 well plate, luminescence read.; format: functional
[9] = microbe, parasite or virus in culture; conditions: Mycobacterium tuberculosis, 72 h, read-out: pIC50 (converted)
[10] = microbe, parasite or virus in culture; conditions: Mycobacterium tuberculosis, 96 h, read-out: pIC50 (converted)
[11] = biological target: T1, Histidine--tRNA ligase (Leishmania infantum, UniProt A4I591); assay: Leishmania infantum Histidine tRNA synthetase (LdHisRS); format: functional
T1 sequence (A4I591 whole entry): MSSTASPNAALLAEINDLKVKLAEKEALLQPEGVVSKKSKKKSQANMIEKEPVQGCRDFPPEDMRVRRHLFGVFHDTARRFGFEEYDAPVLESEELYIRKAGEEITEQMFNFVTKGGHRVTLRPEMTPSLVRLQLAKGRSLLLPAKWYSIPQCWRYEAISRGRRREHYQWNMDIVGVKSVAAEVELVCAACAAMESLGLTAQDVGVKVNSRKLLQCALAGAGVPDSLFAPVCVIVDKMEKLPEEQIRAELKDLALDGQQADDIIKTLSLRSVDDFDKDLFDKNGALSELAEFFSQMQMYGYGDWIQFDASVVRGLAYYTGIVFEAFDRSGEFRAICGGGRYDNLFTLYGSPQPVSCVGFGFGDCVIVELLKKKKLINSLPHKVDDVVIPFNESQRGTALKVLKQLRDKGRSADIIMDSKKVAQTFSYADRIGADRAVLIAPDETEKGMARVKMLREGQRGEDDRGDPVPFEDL

[12] = biological target: ClpP1P2 (Mycobacterium tuberculosis (strain ATCC 25618 / H37Rv), UniProt P9WPC3+P9WPC5); assay: in vitro assay to detect presence of AMC directly proportional to the activity of ClpP1P2. GHDDI collaboration.; format: functional
[13] = system: Wolbachia pipientis; assay: Anti-Wolbachia Cell-Based Screen; format: functional; conditions: Wolbachia pipientis
[14] = biological target: Polyketide synthase Pks13 (Mycobacterium tuberculosis (strain ATCC 25618 / H37Rv), UniProt I6X8D2); assay: Mycobacterium tuberculosis Polyketide synthase 13 Thioesterase (PKS13); format: functional

| SMILES | pIC50 [1] | other results |
| --- | --- | --- |
| Cc1nc(CCNC(=O)NCc2ccc(N(C)C)nc2)cs1 | < 4.21 |  |
| CCS(=O)(=O)N1CCc2ccc(NC(=O)Nc3cccc(SC)c3)cc21 | 5.726 [middle of 4 runs] |  |
| CCS(=O)(=O)N1CCCc2ccc(NC(=O)Cc3ccc(F)cc3)cc21 | 4.555 and 4.597 |  |
| CN1C(=O)C(C)(C)COc2cc(NS(=O)(=O)Cc3ccccc3)ccc21 | < 4.21 and 4.593 | Percent Effect [2]: 31.95% |
| CC(C)c1nnc2ccc(N3CCC(C(=O)Nc4nccs4)CC3)nn12 | 5 and 4.933 |  |
| COCC1c2c(cnn2CC2CC2)CCN1Cc1ccc(OC)cc1 (stereo unspecified) | 5.287 and 5.465 |  |
| Cc1cc(-c2cnc(NCc3cccnc3)nc2C(C)C)on1 | 4.396 and 4.538 |  |
| Cc1ccc(S(=O)(=O)N2C[C@H]3C[C@H](NC(=O)c4ccnn4C)[C@H]3C2)cc1 | 5.601 and 5.47 and 5.597 and 5.592 |  |
| COc1ccccc1CNC(=O)C1=NN(c2ccc(C)cc2)C(=O)CN1 | 4.606 and 4.808 | IC50 [3]: 10.8 µM; pIC50 [4]: < 4.3 and 4.742 |
| CS(=O)(=O)c1ccc(NC(=O)N2CCc3sccc3C2)cn1 | 4.408 and 4.389 |  |
| CN(C)c1ccc(CCCNC(=O)Nc2ccc(C#N)cc2)cc1 | 4.654 and 4.645 |  |
| Cn1cc(-c2csc(N3CCN(C(=O)OC(C)(C)C)CC3)n2)cn1 | 4.669 and 4.891 | Percent Effect [2]: -8.994% |
| CCc1nc(CN2CCN(c3ncnc4cc(F)ccc34)CC2)no1 | 5.76 [middle of 4 runs] |  |
| Cc1n[nH]cc1CNc1ccc2c(c1)CN(C(=O)OC(C)(C)C)CC2 | 4.816 and 4.848 |  |
| COc1ccc(-c2nnc(SC(C)C(=O)NC3CC3)[nH]2)c(OC)c1 (stereo unspecified) | 4.665 and 4.584 |  |
| CC(=O)c1c(F)cccc1N1CCC(Cc2cccnc2)CC1 | 5.268 and 5.138 |  |
| COc1cc(CN(C)C(=O)Cc2c(C)nn(C)c2C)ccc1OC(F)F | 5.786 [middle of 4 runs] | Percent Effect [2]: -34.16% |
| N#Cc1c(F)cccc1N1CCN(S(=O)(=O)c2cccs2)CC1 | 4.537 and 4.564 | Percent Effect [2]: 35.72%; IC50 [5]: > 29.5 µM |
| c1cnn(CC2CN(c3ncnc4ccsc34)CCO2)c1 (stereo unspecified) | 4.809 and 4.868 |  |
| Cc1cnn(CC2CN(c3ncnc4ccsc34)CCO2)c1 (stereo unspecified) | 5.764 [middle of 4 runs] | IC50 [4]: > 50.1 µM |
| Nc1nccc(-c2c[nH]nc2C2CCCCC2)n1 | 4.943 and 4.951 |  |

| SMILES | pIC50 [1] | other results |
| --- | --- | --- |
| CC(C)(O)C1CCN(C(=O)Nc2nc(-c3ccccc3)ns2)CC1 | 4.605 and 4.639 |  |
| CC(=O)c1ccc(N2CCCC(CO)(CCOc3ccccc3)C2)nc1 (stereo unspecified) | 4.524 and 4.702 |  |
| COCC1CCCN(C(=O)c2cc(Cn3ccc4ccccc43)[nH]n2)C1 (stereo unspecified) | < 4.21 | IC50 [5]: > 29.5 µM and 18.8 µM |
| CCn1c(C2CCCN(Cc3nccn3CCOC)C2)nn(C)c1=O (stereo unspecified) | < 4.21 |  |
| CC(=O)N1C[C@@H](c2ccsc2)[C@@H]2CN(Cc3cccc(Cl)c3)CC[C@@H]21 | 4.483 and 4.43 |  |
| Cc1ccc(CC(=O)Nc2cc(C(C)C)n[nH]2)cn1 |  | pIC50 [4]: 4.917; IC50 [4]: 11.7 µM; pIC50 [6]: 4.869 and 4.956; IC50 ([6]; Trypanosoma brucei, 72 h): 12.7 µM; pIC50 [7]: < 4 |
| Cc1ccc(C(=O)Nc2cc(C(C)C)n[nH]2)cn1 | 4.606 and 4.922 |  |
| COc1cccc(CN2CCN(c3ccc4nncn4n3)C(C)C2)c1 (stereo unspecified) | 4.923 and 4.922 |  |
| COc1ncccc1NC(=O)N(Cc1ccc(C)o1)C1CC1 | 4.53 and 4.637 |  |
| CCOCCCn1c(NC(=O)c2scnc2C)nc2ccccc21 | 4.523 and 4.463 | IC50 [5]: > 29.5 µM |
| Clc1ccc2cccnc2c1CN1CCCC1Cn1cncn1 (stereo unspecified) | 4.696 and 4.448 |  |
| COc1ccc(C)cc1CN1CCCC1c1noc(C2CC2)n1 (stereo unspecified) | 4.543 and 4.502 |  |
| c1cnn(CC2CCCN2c2ncnc3sccc23)c1 (stereo unspecified) | 5.137 and 5.086 |  |
| Cc1cc(CN2CCCC2c2noc(C3CC3)n2)c2ccccc2n1 (stereo unspecified) | 5.12 and 5.038 |  |
| O=C1NCCN1C1CCCN(Cc2coc(-c3ccc(F)cc3)n2)C1 (stereo unspecified) | 4.93 and 4.918 |  |
| CC(C)c1nc(C2CCCN(C(=O)CCCn3cncn3)C2)no1 (stereo unspecified) | < 4.21 |  |
| CCOc1ccc(S(=O)(=O)NCc2cccnc2N(C)C)cc1 | 5.549 and 5.242 | IC50 [8]: > 50.1 µM; IC50 [4]: > 50.1 µM |
| COC(=O)c1ccc(S(=O)(=O)NCc2cccnc2N(C)C)cc1 | 4.637 and 5.104 |  |
| CC(C)N(CC(N)=O)Cc1csc(COc2ccc(F)cc2)n1 | 5.121 and 5.081 |  |
| CCn1ncc2c1CCCC2NCc1cc(Cl)c(OC)c(OC)c1 (stereo unspecified) | 4.746 and 4.672 |  |
| Cc1noc(NC(=O)c2ccc(C)c(F)c2)n1 | 4.682 and < 4.57 | IC50 [9]: 30.5 µM; IC50 [10]: 27.1 µM |

| SMILES | pIC50 [1] | other results |
| --- | --- | --- |
| CC(C)c1n[nH]c(C(=O)Nc2ccncc2)c1Br | 4.519 and 4.533 | IC50 [4]: > 50.1 µM |
| COc1cccc(CNc2cnn(C)c(=O)c2Cl)c1 | 4.709 and 5.107 |  |
| O=C(C1CCN(c2snc3ccccc23)CC1)N1CCCCCC1 | 4.575 and 4.655 |  |
| Cc1nc(C)n(CC2CCCN(c3ncnc4sccc34)C2)n1 (stereo unspecified) | 5.597 and 5.199 |  |
| Cc1nc(C)n(CC2CCCN(c3ncnc4c3CCC4)C2)n1 (stereo unspecified) | 5.177 and 5.243 |  |
| O=C(Cc1noc2ccccc12)N1CCCC1c1noc(C2CC2)n1 (stereo unspecified) | 4.845 and 4.787 |  |
| CCC(C)NC(=O)NCCCn1nc2ccccn2c1=O (stereo unspecified) | < 4.21 | IC50 [11]: > 100 µM |
| OCC1CCCN1c1cc(NCc2ccc(Cl)s2)ncn1 (stereo unspecified) | 4.462 and 4.49 |  |
| Cc1nc(C)n(C2CCCN(C(=O)c3ccc(N(C)C)nn3)C2)n1 (stereo unspecified) | < 4.21 |  |
| CC1CN(CC2CCCCC2)CCN1c1ccc2nncn2n1 (stereo unspecified) | 4.49 and 4.459 | IC50 [5]: > 29.5 µM; IC50 [12]: > 100 µM |
| Cc1cc(-c2cnc(N3CCCC(C)C3)nc2-c2cccnc2C)on1.Cl (stereo unspecified) | 4.421 and 4.521 |  |
| CC(C)(C)C(=O)N1C[C@H](c2ccsc2)[C@H]2CN(Cc3cccs3)CC[C@H]21.Cl | 4.58 and 4.539 |  |
| COc1c(CNC2CCSc3ccc(F)cc32)c(C)nn1C.Cl (stereo unspecified) | 4.845 and 5.142 | IC50 [13]: > 10 µM |
| CCc1ccc(CN2C[C@@H]3OCCN(c4ccnc(N(C)C)n4)[C@@H]3C2)o1.O=C(O)C(F)(F)F | 5.071 and 5.204 |  |
| CN(Cc1ccco1)[C@@H]1CN(C(=O)c2ccnnc2)[C@@H]2CCCO[C@H]12.O=C(O)C(F)(F)F | < 4.21 |  |
| O=C(O)C(F)(F)F.O=C(c1ncccn1)N1C[C@H]2CCC[C@@]2(COCc2cccnc2)C1 | < 4.21 |  |
| COCCN1CCc2cc(C(=O)NCC3CC3)c(NC(C)C)nc2CC1.O=C(O)C(F)(F)F.O=C(O)C(F)(F)F | 5.014 and 5.099 | IC50 [14]: 18.4 µM and 14.5 µM; IC50 [12]: > 100 µM |
| CC(C)N1Cc2c(C(=O)N3CCOCC3)nn(C)c2C1.O=C(O)C(F)(F)F.O=C(O)C(F)(F)F | < 4.21 |  |
| O=C(O)C(F)(F)F.O=C(O)C(F)(F)F.O=C(O)C(F)(F)F.c1ccc(CO[C@@H]2CO[C@@]3(CCN(Cc4ccccn4)C3)C2)nc1 | < 4.21 |  |
